Here are results for 13 molecules from patent publication US9676714B2, “Sulfonylindole derivatives and method for preparing the same” (Daewoong Pharmaceutical Co., Ltd., priority 2013, dated 2017).

Structures can show the parent of a compound that is named as a salt.

The target in the experiment is T1, proton pump (H+/K+-ATPase) (Sus scrofa, UniProt P19156).
T1 construct: Gastric vesicles were prepared from hog stomach via centrifugal separation; from tissue; host or cells: hog stomach (gastric vesicles, method of Rabon et al. 1988)
T1 sequence (P19156 whole entry): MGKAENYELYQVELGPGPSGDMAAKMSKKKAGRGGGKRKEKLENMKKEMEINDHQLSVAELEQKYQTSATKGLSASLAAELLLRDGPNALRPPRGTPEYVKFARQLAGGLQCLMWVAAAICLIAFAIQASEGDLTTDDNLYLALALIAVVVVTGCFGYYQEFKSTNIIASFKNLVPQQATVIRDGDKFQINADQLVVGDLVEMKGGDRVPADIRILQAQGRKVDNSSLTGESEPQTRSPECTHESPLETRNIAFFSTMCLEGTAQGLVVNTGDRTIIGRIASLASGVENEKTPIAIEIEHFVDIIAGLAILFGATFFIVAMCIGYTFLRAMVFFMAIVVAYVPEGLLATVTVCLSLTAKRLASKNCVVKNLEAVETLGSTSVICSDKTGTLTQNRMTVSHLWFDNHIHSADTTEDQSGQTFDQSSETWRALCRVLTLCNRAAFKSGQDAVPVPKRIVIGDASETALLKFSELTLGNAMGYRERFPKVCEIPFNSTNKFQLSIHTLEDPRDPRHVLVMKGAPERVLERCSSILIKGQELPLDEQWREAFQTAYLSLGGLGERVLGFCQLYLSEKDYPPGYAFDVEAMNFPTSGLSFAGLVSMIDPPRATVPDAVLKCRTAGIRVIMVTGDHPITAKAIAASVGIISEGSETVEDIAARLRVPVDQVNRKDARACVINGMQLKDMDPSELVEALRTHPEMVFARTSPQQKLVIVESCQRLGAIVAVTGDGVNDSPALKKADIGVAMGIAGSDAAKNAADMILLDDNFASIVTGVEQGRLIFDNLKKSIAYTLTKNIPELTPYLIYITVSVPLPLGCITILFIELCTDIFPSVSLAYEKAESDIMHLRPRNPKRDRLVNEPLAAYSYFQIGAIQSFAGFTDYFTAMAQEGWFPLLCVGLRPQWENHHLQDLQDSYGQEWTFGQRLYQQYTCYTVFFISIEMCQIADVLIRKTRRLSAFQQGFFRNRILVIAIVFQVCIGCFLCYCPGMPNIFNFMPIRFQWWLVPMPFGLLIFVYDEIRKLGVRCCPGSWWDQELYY
T1 sequence (P18434 whole entry partner): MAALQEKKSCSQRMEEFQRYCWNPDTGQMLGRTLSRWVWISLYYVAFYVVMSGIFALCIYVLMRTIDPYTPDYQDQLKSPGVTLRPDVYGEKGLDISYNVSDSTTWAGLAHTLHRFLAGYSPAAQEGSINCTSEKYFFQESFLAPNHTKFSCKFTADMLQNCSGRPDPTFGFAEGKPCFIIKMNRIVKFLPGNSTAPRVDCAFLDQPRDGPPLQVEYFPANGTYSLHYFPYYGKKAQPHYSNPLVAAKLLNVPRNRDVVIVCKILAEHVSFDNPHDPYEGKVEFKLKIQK
Description: Measurement of inhibitory effects on proton pump (H+/K+-ATPase) activities. It is filed as biochemical. To be noted: hog gastric vesicles, K+-specific H+/K+-ATPase activity, Tris-HCl buffer pH 7.4, 37° C. for 40 minutes, malachite green Pi readout. In short, it runs like this: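 Hog gastric vesicles in 60 mmol/l Tris-HCl pH 7.4 with 0.5% DMSO were treated with compounds at room temperature; reaction was started with 10 μl of 10 mmol/l ATP stock. Released Pi was read at 570 nm, K+-specific activity taken as the ±K+ difference. IC50 from 4-parameter logistic fit.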
A word on the IC50: it is the midpoint of a concentration-inhibition curve. The low end stands for higher potency, the high end for lower potency. For `CNCc1cn(S(=O)(=O)c2cccnc2)c2cc(Nc3ncccc3F)ccc12` [Example 99, N-(3-fluoropyridin-2-yl)-3-((methylamino)methyl)-1-(pyridin-3-ylsulfonyl)-1H-indol-6-amine hydrochloride], the concentration for half-maximal inhibition (IC50) is 1380 nM.
`CNCc1cn(S(=O)(=O)c2cccnc2)c2cc(Nc3ncccc3Cl)ccc12` [Example 100, N-(3-chloropyridin-2-yl)-3-((methylamino)methyl)-1-(pyridin-3-ylsulfonyl)-1H-indol-6-amine hydrochloride] came in with an IC50 of 800 nM.
For `CNCc1cn(S(=O)(=O)c2cccnc2)c2cc(Nc3ncccc3C(F)(F)F)ccc12` [Example 101, 3-((methylamino)methyl)-1-(pyridin-3-ylsulfonyl)-N-(3-(trifluoromethyl)pyridin-2-yl)-1H-indol-6-amine hydrochloride] the value was 2200 nM.
`CNCc1cn(S(=O)(=O)c2cccnc2)c2cc(Nc3ncccc3Br)ccc12` [Example 102, N-(3-bromopyridin-2-yl)-3-((methylamino)methyl)-1-(pyridin-3-ylsulfonyl)-1H-indol-6-amine hydrochloride]: it took 2520 nM to reach half-maximal inhibition (IC50).
For `CNCc1cn(S(=O)(=O)c2cccnc2)c2cc(Nc3cccnc3C)ccc12` [Example 105, 3-((methylamino)methyl)-N-(2-methylpyridin-3-yl)-1-(pyridin-3-ylsulfonyl)-1H-indol-6-amine hydrochloride] the value was 880 nM; for `CNCc1cn(S(=O)(=O)c2cccnc2)c2cc(Nc3cccnc3F)ccc12` [Example 106, N-(2-fluoropyridin-3-yl)-3-((methylamino)methyl)-1-(pyridin-3-ylsulfonyl)-1H-indol-6-amine hydrochloride], 3380 nM.
For `CNCc1cn(S(=O)(=O)c2cccnc2)c2cc(Nc3cccnc3Cl)ccc12` [Example 107, N-(2-chloropyridin-3-yl)-3-((methylamino)methyl)-1-(pyridin-3-ylsulfonyl)-1H-indol-6-amine hydrochloride] the value was 480 nM; for `CNCc1cn(S(=O)(=O)c2cccnc2)c2cc(Nc3cccnc3C(F)(F)F)ccc12` [Example 109, 3-((methylamino)methyl)-1-(pyridin-3-ylsulfonyl)-N-(2-(trifluoromethyl)pyridin-3-yl)-1H-indol-6-amine hydrochloride], 1980 nM.
For `CNCc1cn(S(=O)(=O)c2cccnc2)c2cc(Nc3cncc(Br)c3)ccc12` [Example 110, N-(5-bromopyridin-3-yl)-3-((methylamino)methyl)-1-(pyridin-3-ylsulfonyl)-1H-indol-6-amine hydrochloride] the value was 5040 nM; for `CNCc1cn(S(=O)(=O)c2cccnc2)c2cc(Nc3ccc(C)nc3C)ccc12` [Example 111, N-(2,6-dimethylpyridin-3-yl)-3-((methylamino)methyl)-1-(pyridin-3-ylsulfonyl)-1H-indol-6-amine hydrochloride], 3210 nM.
Molecule `CNCc1cn(S(=O)(=O)c2cccnc2)c2cc(Nc3ccc(C)nc3F)ccc12` [Example 112, N-(2-fluoro-6-methylpyridin-3-yl)-3-((methylamino)methyl)-1-(pyridin-3-ylsulfonyl)-1H-indol-6-amine hydrochloride] yielded an IC50 of 950 nM.
For `CNCc1cn(S(=O)(=O)c2cccnc2)c2cc(Nc3ccc(C)nc3Cl)ccc12` [Example 113, N-(2-chloro-6-methylpyridin-3-yl)-3-((methylamino)methyl)-1-(pyridin-3-ylsulfonyl)-1H-indol-6-amine hydrochloride] the value was 340 nM; for `CNCc1cn(S(=O)(=O)c2cccnc2)c2cc(Nc3ccc(C)nc3C(F)(F)F)ccc12` [Example 115, N-(6-methyl-2-(trifluoromethyl)pyridin-3-yl)-3-((methylamino)methyl)-1-(pyridin-3-ylsulfonyl)-1H-indol-6-amine hydrochloride], 1300 nM.
